Columns and labels:
Format in all cases: cell-based, mouse
[1] = test system: EndMT markers (Klf4, Sca1 and Fsp1); experiment: Real time (RT-PCR) analysis of EndMT markers, wild type and CCM3 knock out immortalized lung endothelial cells; conditions: 72 hours
Protocol: (§1) Cells were seeded 6.3×10^4 cells/cm^2. The day after, PTC209 and UNC1999 were added to the confluent cells. Drugs were left for one or three days depending on the aim of the experiment. Final concentrations used for the two drugs were: 1 uM PTC209 and 5 uM UNC1999.
(§2) RNA extraction was performed both with (A) RNeasy kits (Promega) or (B) RNAeasy Mini Kit (QIAGEN). The latter allows also the extraction of proteins from the same sample. The RNA (500 ng) was reverse transcribed with random hexamers (High Capacity cDNA Archive kits; Applied Biosystems) in a final volume of 30 uL. Reaction were made with a thermocycler (Eppendorf) 10 min at 25° C. followed by 2 hours at 37° C. cDNA (5 ng) was amplified in triplicate in a reaction volume of 15 uL using TaqMan Gene Expression Assays (Applied Biosystems) in a ABI/Prism 7900 HT using a pre PCR step of 10 min at 95° C., followed by 40 cycles of 15 seconds at 95° C. and 60 seconds at 60° C. For each sample, the expression level was determined with the comparative threshold cycle (Ct) method, and normalized to the housekeeping genes encoding 18S, glyceraldehyde-3-phosphate dehydrogenase (GAPDH) and hypoxanthine-guanine phosphoribosyltransferase (hprt1). Ct or threshold cycle, represents the PCR cycle at which an increase in reporter fluorescence above a base-line signal can first be detect.
Wild type and CCM3 knock out cells were treated with either PTC209 or DMSO starting from the day after seeding, when cells were confluent. For this experiment cells were lysed for western blot and real-time analysis after 72 hours of treatment to check a long-term effect of PTC209.
To perform these experiments, immortalized lung endothelial cells both wild type and CCM3 knock out were treated, with the same experimental strategy used for PTC209, with UNC1999 for 72 hours and subsequently lysed for western blot and real time analysis. UNC1999 was used in its specific optimal concentration, which was different to PTC209. As control DMSO was given to the cells in a volume equal to the volume of DMSO in which UNC1999 was previously dissolved to rich the optimal concentration.
Briefly, wild type and CCM3 knock out cells were treated with either PTC209, UNC1999 or a combination of the two. PTC209 and UNC1999 were administrated at the same concentration used for the single treatment and DMSO was given as control in a volume equal to the sum of volumes of DMSO in which UNC1999 and PTC209 were previously dissolved.

[2] = test system: EndMT markers (Klf4, Sca1 and Fsp1); experiment: RT-PCR of EndMT markers in wild type cells infected with lentivirus expressing LefΔN-β-catΔC; conditions: wild type cells infected with 40 ul LefΔN-β-catΔC lentivirus; PTC209 72 hours from nine days after infection
Protocol: as §2
One day before infection, 300.000 cells/well were seeded in a 6-wells plate in complete medium as described before.
The day after 40 uL per well of the concentrated virus was added to the cells medium and leaved overnight at 37° C. […]

VE-cadherin [3] = experiment: Real time analysis of VE-cadherin transcript, CCM3 knock out cells; conditions: PTC209
Protocol: as §2
Western blot and real time analysis of VE-cadherin were performed in parallel to confirm the reduction of VE-cadherin observed by immunofluorescence (FIG. 8A-C). VE-cadherin protein and transcript levels, as expected, were reduced in CCM3 knock out cells compare to wild type, as already shown (Bravi et al., 2015).

LEF1 = experiment: Immunofluorescence of LEF1, CCM3 knock out cells; conditions: PTC209 vs DMSO
From the text: The inventors started to analysed interaction between Bmi1 and β-catenin pathway. By immunofluorescence analysis on wild type and CCM3 knock out cells treated with PTC209 and DMSO as control, as already mentioned, the inventors checked expression of LEF1, a transcription factor that is directly activated by β-catenin and is responsible for transcriptional activation of Axin2 (Behrens et al., 1996), to see whether Bmi1 inhibition interfered with β-catenin pathway activation.

VE-cadherin [4] = experiment: Western blot analysis of VE-cadherin, CCM3 knock out cells; conditions: 72 hours
Protocol: as §1
Confluent cells were lysed with boiling modified Laemi sample Buffer (2% SDS, 20% glycerol, and 125 mM Tris-HCl, pH 6.8). Lysates were incubated for 10 minutes at 100° C. to allow proteins denaturation. Protein concentration was estimated using the BCA Protein Assay Kit (Pierce). Equal amount of proteins was loaded on a gel, separated by SDS-PAGE and transferred to a Protran Nitrocellulose Membrane (Whatman) 0.2 um pores. The membranes were blocked for 1 hour at RT in Tris Buffered Saline (TBS: NaCl 150 mM, Tris-HCl 10 mM pH 7.4) plus 0.1% Tween-20 containing 5% BSA or milk. […] Membranes were rinsed three times with TBST for 5 minutes each and specific bindings were detected by enhanced chemiluminescence (ECL) system (Amersham Bioscience) using ChemiDoc XRS gel imaging system (Bio-Rad).
Experiment with combined PTC209 and UNC1999 treatments was repeated with the same experimental conditions described before and junction organisation was analysed through VE-cadherin staining and protein expression analysis (FIG. 19).

COc1cc(Br)c(Nc2nc(-c3c(C)nc4ncccn34)cs2)c(Br)c1 [PTC209, N-(2,6-dibromo-4-methoxyphenyl)-4-(2-methylimidazo[1,2-a]pyrimidin-3-yl)thiazol-2-amine]
Klf4 transcript up-regulation induced by CCM3 deletion (real time analysis) ([1]; CCM3 knock out cells): completely rescued | Klf4, Sca1 and Fsp1 transcripts (real time analysis) ([1]; CCM3 knock out cells, 1 uM PTC209, 5 uM UNC1999, vs DMSO): downregulated | Klf4 transcript (real time analysis) ([1]; wild type cells (physiological condition), CCM3 model): not affected | Sca1 and Fsp1 upregulation (RT-PCR) [2]: strongly reduced | VE-cadherin transcript level (real time analysis) (VE-cadherin [3]): did not rescue | LEF1 (immunofluorescence) (LEF1): reduced | VE-cadherin protein expression level (western blot) (VE-cadherin [4]): did not show any rescue

From patent US12377092B2, “Polycomb inhibitors and uses thereof” (FONDAZIONE ISTITUTO FIRC DI ONCOLOGIA MOLECOLARE (IFOM), priority 2017, dated 2025)
